Data as given in US20080033006A1, “1,2,4-Triazolo[ 1,5-A] Pyridines as Gastric Acid Secretion Inhibitors” (Altana Pharma AG, priority 2004, published 2008).

What was measured:
[1] = test system: pentagastrin-stimulated acid secretion of the perfused rat stomach; experiment: Secretion-inhibiting action on the perfused rat stomach (pentagastrin-stimulated acid secretion); format: in vivo; settings: anesthetized CD rat, dose 1 μmol/kg i.d.; for inhibition in vivo at 1 µmol/kg: intraduodenal
From the text: In Table A which follows, the influence of the compounds according to the invention on the pentagastrin-stimulated acid secretion of the perfused rat stomach after intraduodenal administration in vivo is shown.
The abdomen of anesthetized rats (CD rat, female, 200-250 g; 1.5 g/kg i.m. urethane) was opened after tracheotomy by a median upper abdominal incision and a PVC catheter was fixed transorally in the esophagus and another via the pylorus such that the ends of the tubes just projected into the gastric lumen. The catheter leading from the pylorus led outward into the right abdominal wall through a side opening.
After thorough rinsing (about 50-100 ml), warm (37° C.) physiological NaCl solution was continuously passed through the stomach ([…], pH 6.8-6.9; Braun-Unita I). The pH (pH meter 632, glass electrode EA 147; φ=5 mm, Metrohm) and, by titration with a freshly prepared 0.01N NaOH solution to pH 7 (Dosimat 665 Metrohm), the secreted HCl were determined in the effluent in each case collected at an interval of 15 minutes.
The gastric secretion was stimulated by continuous infusion of 1 μg/kg (=1.65 ml/h) of i.v. pentagastrin (left femoral vein) about 30 min after the end of the operation (i.e. after determination of 2 preliminary fractions). The substances to be tested were administered intraduodenally in a 2.5 ml/kg liquid volume 60 min after the start of the continuous pentagastrin infusion.
The body temperature of the animals was kept at a constant 37.8-38° C. by infrared irradiation and heat pads (automatic, stepless control by means of a rectal temperature sensor).

Structure (SMILES) | melting point | inhibition in vivo at 1 µmol/kg [1] | Inhibition of acid secretion [1]
CCc1cccc(C)c1CNc1cc(CN)cn2nc(C)nc12 [Example 9, 8-(2-Ethyl-6-methylbenzylamino)-6-aminomethyl-2-methyl[1,2,4]triazolo-[1,5-a]pyridine] |  | < 25% | 
CCc1cccc(C)c1CNc1cc(CN2CCOCC2)cn2nc(C)nc12 [Example 10, 8-(2-Ethyl-6-methylbenzylamino)-6-morpholinomethyl-2-methyl[1,2,4]triazolo-[1,5-a]-pyridine] | 97.2 °C | < 25% | 
CCc1cccc(C)c1CNc1cc(COCCOC)cn2nc(C)nc12.Cl [Example 13, 8-(2-Ethyl-6-methylbenzylamino)-6-(2-methoxyethoxymethyl)-2-methyl-[1,2,4]triazolo[1,5-a]pyridine hydrochloride] | 120.2 °C | > 25% | 
CCc1cccc(C)c1CNc1cc(Cn2ccnc2)cn2nc(C)nc12 [Example 11, 8-(2-Ethyl-6-methylbenzylamino)-6-(imidazol-1-ylmethyl)-2-methyl[1,2,4]triazolo-[1,5-a]-pyridine] | 158.5 °C | > 25% | 
CCc1cccc(C)c1CNc1cc(C(=O)N(C)C)cn2nc(C)nc12 [Example 3, 8-(2-Ethyl-6-methylbenzylamino)-N,N,2-trimethyl[1,2,4]triazolo[1,5-a]pyridine-6-carboxamide] |  | > 25% | 
CCc1cccc(C)c1CNc1cc(C(=O)NCCOC)cn2nc(C)nc12 [Example 4, 8-(2-Ethyl-6-methylbenzylamino)-N-(2-methoxyethyl)-2-methyl[1,2,4]triazolo-[1,5a]-pyridine-6-carboxamide] |  |  | <25%

Continued, in another order:

melting point | Structure (SMILES) | inhibition in vivo at 1 µmol/kg [1] | Inhibition of acid secretion [1]
235.8 °C | CCc1cccc(C)c1CNc1cc(CN(C)C)cn2nc(C)nc12.Cl [Example 7, 8-(2-Ethyl-6-methylbenzylamino)-6-dimethylaminomethyl-2-methyl[1,2,4]triazolo[1,5-a]pyridine hydrochloride] | > 25% | 
179 °C | CCc1cccc(C)c1CNc1cc(CNC)cn2nc(C)nc12 [Example 8, 8-(2-Ethyl-6-methylbenzylamino)-6-methylaminomethyl-2-methyl[1,2,4]triazolo-[1,5-a]-pyridine] | > 25% | 
180.3 °C | CCc1cccc(C)c1CNc1cc(CO)cn2nc(C)nc12 [Example 6, 8-(2-Ethyl-6-methylbenzylamino)-6-hydroxymethyl-2-methyl[1,2,4]triazolo-[1,5-a]pyridine] | < 25% | 
98.7 °C | CCc1cccc(C)c1CNc1cc(COC)cn2nc(C)nc12 [Example 5, 8-(2-Ethyl-6-methylbenzylamino)-6-methoxymethyl-2-methyl[1,2,4]triazolo-[1,5-a]pyridine] | > 25% | 
139.8 °C | CCc1cccc(C)c1CNc1cc(C(=O)OC)cn2nc(C)nc12 [Example 1, 8-(2-Ethyl-6-methylbenzylamino)-2-methyl[1,2,4]triazolo[1,5-a]pyridine-6-carboxylic acid methyl ester] |  | 
264.1 °C | CCc1cccc(C)c1CNc1cc(C(=O)O)cn2nc(C)nc12 [Example 2, 8-(2-Ethyl-6-methyl-benzylamino)-2-methyl[1,2,4]triazolo[1,5-a]pyridine-6-carboxylic acid] |  | 
